One test deals with HCV. To be noted: cited from earlier work.
The target in test [1] is HCV NS3/4A protease complex, BMS strain (UniProt P27958, C1454S/C1711G, species not given/STRAIN_BMS). As to the kind of experiment: Recombinant HCV NS3/4A protease complex FRET peptide assay (BMS strain). In kind it is biochemical, HCV genotype 1a. A digest of the protocol: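 Percent inhibition taken from the linear-range fluorescence slope relative to uninhibited control, read kinetically for about 15 min at 25° C. Enzyme (2-3 nM, BMS NS3/4A complex, lysine-tailed, Ni-NTA purified) met compound for 1 min before 2 μM FRET depsipeptide substrate started cleavage.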

The test system of test [2] is HCV replicon in Huh7 cells. As to the kind of experiment: HCV replicon cell-based assay. Details: species or system HCV strain 1B. Particulars: Hepatitis C virus, Huh-7; HCV replicon, Huh7 cells; read-out: EC50 range. (In general: Replicon systems follow genome replication, usually without infectious particles.)
The mark [3] stands for this setting: NS3/4A BMS strain; read-out: IC50 range.
Where [4] appears, read: read-out: IC50 range; NS3/4A BMS strain.

The values below come from patent US7915291B2, “Hepatitis C virus inhibitors” (Bristol-Myers Squibb Company, priority 2002, dated 2011).

Like-named read-outs stand apart in the source and are kept apart here. Where only a bound is given, the exact number is not on record here.

As a reminder, the IC50 is the point on the concentration scale where inhibition reaches its midpoint. What is called EC50 is the concentration that produces a half-maximal response.

With pegylated alpha-interferon, the “clinical comparison as monotherapy” value with HCV (HCV patients, monotherapy, recent clinical results) is “superior to unmodified alpha-interferon”. With `C=C[C@@H]1C[C@]1(NC(=O)[C@@H]1C[C@@H](Oc2nccc3cc(OC)ccc23)CN1C(=O)[C@@H](NC(=O)OC(C)(C)C)C1CCCCC1)C(=O)NS(=O)(=O)C1CC1` [Compound 143], in test [1] (setting [3]), the IC50 is below 100 nM. Further, the EC50 in test [2] was below 100 nM.

Consider `C=C[C@@H]1C[C@]1(NC(=O)[C@@H]1C[C@@H](Oc2ccnc(-c3cccs3)c2)CN1C(=O)[C@@H](NC(=O)OC1CCCC1)C(C)(C)C)C(=O)NS(=O)(=O)C1CC1` [Compound 429], for which, in test [1] (setting [3]), the IC50 is below 100 nM. Also, in test [2], the EC50 was below 100 nM.

In the case of alpha-interferon and ribavirin, the “sustained efficacy, share of patients” value in the test with HCV (HCV infected patients, combination therapy) is 40%. Regarding `C=C[C@@H]1C[C@]1(NC(=O)[C@@H]1C[C@@H](Oc2cccc(-c3ccccc3)n2)CN1C(=O)[C@@H](NC(=O)OC(C)(C)C)C(C)(C)C)C(=O)NS(=O)(=O)C1CC1` [Compound 436], the IC50 in test [1] (setting [3]) was below 100 nM. Further, the EC50 in test [2] fell in the range of 100 to 1000 nM.

As to `C=C[C@@H]1CC1(NC(=O)[C@@H]1CC(Oc2nccc3cc(OC)ccc23)CN1C(=O)[C@@H](NC(=O)NC(C)(C)CC)C(C)(C)C)C(=O)NS(=O)(=O)C1CC1` (some centres unmarked) [Compound 76], the IC50 in test [1] (setting [4]) was below 100 nM. Also, in test [2], the EC50 was below 100 nM. With `C=CC1C[C@]1(NC(=O)[C@@H]1C[C@@H](COc2ccnc(-c3cccs3)c2)CN1C(=O)[C@@H](NC(=O)OC)C(C)(C)C)C(=O)NS(=O)(=O)C1CC1` (some centres unmarked) [Compound 350], in test [1] (setting [4]), the half-inhibitory concentration (IC50) fell in the range of 100 to 1000 nM. Further, the EC50 in test [2] is 10000 to 100000 nM. `C=C[C@@H]1C[C@]1(NC(=O)[C@@H]1C[C@@H](Oc2ccnc(-c3ccc(OC)cc3)c2)CN1C(=O)[C@@H](NC(=O)OC1CCCC1)C(C)(C)C)C(=O)NS(=O)(=O)C1CC1` [Compound 428]: the IC50 in test [1] (setting [3]) is below 100 nM. In addition, the half-maximal effective concentration (EC50) in test [2] is 100 to 1000 nM. Taken in the same sequence, the figures for `C=C[C@@H]1C[C@]1(NC(=O)[C@@H]1C[C@@H](Oc2nccc3ccccc23)CN1C(=O)[C@@H](NC(=O)OCCF)C(C)(C)C)C(=O)NS(=O)(=O)C1CC1` [Compound 126] were below 100 nM and 100 to 1000 nM. As for `C=C[C@@H]1C[C@]1(NC(=O)[C@@H]1C[C@@H](Oc2nccc3cc(OC)ccc23)CN1C(=O)[C@@H](NC(=O)N[C@H](C(=O)OCC)C(C)C)C(C)(C)C)C(=O)NS(=O)(=O)C1CC1` [Compound 148], the IC50 in test [1] (setting [3]) is below 100 nM. For the same molecule, in test [2], the EC50 is below 100 nM. With `C=CC1C[C@]1(NC(=O)[C@@H]1C[C@@H](Oc2cc(C(F)(F)F)nc3ccc(F)cc23)CN1C(=O)[C@@H](NC(=O)OC(C)(C)C)C(C)(C)C)C(=O)NS(=O)(=O)C1CC1` (stereo partly drawn) [Compound 238, BOCNH-P3(L-t-BuGly)-P2[(4R)-(2-trifluoro-6-fluoroquinoline-4-oxo)-S-proline]-P1(1R,2S VinylAcca)-CONHSO2Cyclopropane], the IC50 in test [1] (setting [3]) is below 100 nM. Besides, the EC50 in test [2] was in the range of 100 to 1000 nM. On to `C=CC1C[C@]1(NC(=O)[C@@H]1C[C@@H](Oc2nc(-c3ccc(N(C)C)cc3)cc3cc(OC)ccc23)CN1C(=O)[C@@H](NC(=O)OC(C)(C)C)C(C)(C)C)C(=O)NS(=O)(=O)C1CC1` (some centres unmarked) [Compound 326], for which the IC50 in test [1] (setting [3]) was below 100 nM. Besides, in test [2], the EC50 was below 100 nM.

For the molecule `C=C[C@@H]1C[C@]1(NC(=O)[C@@H]1CC(Oc2nccc3cc(OC)ccc23)CN1C(=O)[C@H](C(C)C)N(C)C(=O)OC(C)(C)C)C(=O)NS(=O)(=O)C1CC1` (some centres unmarked) [Compound 85], in test [1] (setting [3]), the IC50 lay in the range of 100 to 1000 nM. For the same molecule, in test [2], the EC50 was in the range of 1000 to 10000 nM. For the molecule `C=C[C@@H]1C[C@]1(NC(=O)[C@@H]1C[C@@H](Oc2nccc3cc(OC)ccc23)CN1C(=O)[C@@H](NC(=O)NC(C)(C)C)[C@H](C)OC)C(=O)NS(=O)(=O)C1CC1` [Compound 101], the IC50 in test [1] (setting [4]) was below 100 nM. Also, in test [2], the half-maximal effective concentration (EC50) is below 100 nM. In the case of `C=C[C@@H]1C[C@]1(NC(=O)[C@@H]1C[C@@H](Oc2nccc3cc(Br)ccc23)CN1C(=O)[C@@H](NC(=O)OC(C)(C)C)C(C)(C)C)C(=O)NS(=O)(=O)C1CC1` [Compound 22], the IC50 in test [1] (setting [3]) is below 100 nM. The EC50 in test [2] fell in the range of 100 to 1000 nM. Turning to `C=C[C@@H]1C[C@]1(NC(=O)[C@@H]1C[C@@H](Oc2nccc3cc(OC)ccc23)CN1C(=O)[C@@H](NC(=O)OC)C(C)(C)C)C(=O)NS(=O)(=O)C1CC1` [Compound 16], the IC50 in test [1] (setting [3]) was below 100 nM. Also, the EC50 in test [2] was 100 to 1000 nM. For the molecule `CC[C@@H]1C[C@]1(NC(=O)[C@@H]1C[C@@H](Oc2nccc3c(C(F)(F)F)cccc23)CN1C(=O)[C@@H](NC(=O)OC(C)(C)C)C(C)(C)C)C(=O)NS(=O)(=O)C1CC1` [Compound 295], the IC50 in test [1] (setting [3]) is 100 to 1000 nM. Further, the EC50 in test [2] fell in the range of 1000 to 10000 nM. Taken in the same sequence, the figures for `CC[C@@H]1C[C@]1(NC(=O)[C@@H]1C[C@@H](Oc2nccc3c(Cl)cccc23)CN1C(=O)[C@@H](NC(=O)OC(C)(C)C)C(C)(C)C)C(=O)NS(=O)(=O)C1CC1` [Compound 294] were below 100 nM and 100 to 1000 nM. For `C=CC1C[C@]1(NC(=O)[C@@H]1C[C@@H](Oc2nccc3c(SC)c(OC)ccc23)CN1C(=O)[C@@H](NC(=O)OC(C)(C)C)C(C)(C)C)C(=O)NS(=O)(=O)C1CC1` (stereo partly drawn) [Compound 207, BOCNH-P3(L-t-BuGly)-P2 [(4R)-(6-methoxy-5-methylthio-isoquinolin-1-oxo)-S-proline]-P1(1R,2S VinylAcca)-CONHSO2Cyclopropane], in that order: below 100 nM and below 100 nM.

Consider `C=CC1C[C@]1(NC(=O)[C@@H]1C[C@@H](Oc2nc(-c3csc(N(C)C)n3)cc3cc(OC)ccc23)CN1C(=O)[C@@H](NC(=O)OC(C)(C)C)C(C)(C)C)C(=O)NS(=O)(=O)C1CC1` (some centres unmarked) [Compound 322], for which, in test [1] (setting [3]), the IC50 is below 100 nM. In test [2], the EC50 was below 100 nM. Regarding `C=CC1CC1(NC(=O)C1CC(Oc2nc(Br)c(OCOCC[Si](C)(C)C)c3ccccc23)CN1C(=O)C(NC(=O)OC(C)(C)C)C(C)(C)C)C(=O)NS(=O)(=O)C1CC1` (centres unmarked) [Compound 225], in test [1] (setting [3]), the IC50 was below 100 nM. Further, the EC50 in test [2] was 100 to 1000 nM. Turning to `C=CC1C[C@]1(NC(=O)[C@@H]1C[C@@H](Oc2nccc(-c3ccccn3)n2)CN1C(=O)[C@@H](NC(=O)OC)C(C)(C)C)C(=O)NS(=O)(=O)C1CC1` (some centres unmarked) [Compound 336], the IC50 in test [1] (setting [3]) fell in the range of 100 to 1000 nM. For the same molecule, the EC50 in test [2] was in the range of 1000 to 10000 nM. Taken in the same sequence, the figures for `C=CC1CC1(NC(=O)C1CC(Oc2nccc3c(OC(F)F)cccc23)CN1C(=O)C(NC(=O)OC(C)(C)C)C(C)(C)C)C(=O)NS(=O)(=O)C1CC1` (centres unmarked) [Compound 285] were below 100 nM and below 100 nM. With `C=C[C@@H]1C[C@]1(NC(=O)[C@@H]1C[C@@H](Oc2ncc(Cl)c3ccccc23)CN1C(=O)[C@@H](NC(=O)OC(C)(C)C)C(C)(C)C)C(=O)NS(=O)(=O)C1CC1` [Compound 281], the IC50 in test [1] (setting [3]) was below 100 nM. For the same molecule, in test [2], the EC50 was below 100 nM.

Consider `C=C[C@@H]1C[C@]1(NC(=O)[C@@H]1C[C@@H](Oc2nccc3cc(OC)ccc23)CN1C(=O)[C@@H](NC(=O)OCC(C)(C)C)C(C)(C)C)C(=O)NS(=O)(=O)C1CCC1` [Compound 381], for which the IC50 in test [1] (setting [4]) was below 100 nM. Also, the EC50 in test [2] lay within 100 to 1000 nM.

As for `CC[C@@H]1C[C@]1(NC(=O)[C@@H]1C[C@@H](Oc2cc3c(Cl)nccc3cc2OC)CN1C(=O)[C@@H](NC(=O)OC(C)(C)C)C(C)(C)C)C(=O)NS(=O)(=O)C1CC1` [Compound 300], the IC50 in test [1] (setting [3]) is below 100 nM. Also, the EC50 in test [2] lay within 100 to 1000 nM. For `C=C[C@@H]1C[C@]1(NC(=O)[C@@H]1C[C@@H](Oc2nccc3cc(OC)ccc23)CN1C(=O)[C@@H](NC(=O)OC(C)C)C(C)(C)C)C(=O)NS(=O)(=O)C1CC1` [Compound 17], in that order: below 100 nM and below 100 nM. For `C=C[C@@H]1C[C@]1(NC(=O)[C@@H]1C[C@@H](Oc2nccc3c(F)cccc23)CN1C(=O)[C@@H](NC(=O)OC(C)(C)C)C(C)(C)C)C(=O)NS(=O)(=O)C1CC1` [Compound 255], in that order: below 100 nM and 100 to 1000 nM.

For the molecule `C=C[C@@H]1C[C@]1(NC(=O)[C@@H]1C[C@@H](Oc2nccc3cc(OCC)ccc23)CN1C(=O)[C@@H](NC(=O)OC(C)(C)C)C(C)(C)C)C(=O)NS(=O)(=O)C1CC1` [Compound 42], the IC50 in test [1] (setting [3]) was below 100 nM. In addition, the EC50 in test [2] was below 100 nM.
